Reference: publication PMC5412883, “An intranasally delivered peptide drug ameliorates cognitive decline in Alzheimer transgenic mice” (EMBO Molecular Medicine, 2017)
Where a SMILES comes first, the peptide text is derived from it. [ ]: non-standard residue; d: D form.

Legend:
[1] = CD spectra and TEM of the single peptides (conformation, self-aggregation); type: physicochemical; conditions: 30 μM peptide in 20 mM sodium phosphate buffer with 150 mM KCl (pH 7), 25°C; for amyloid fibril formation (TEM): incubation for 168 h; for conformation by CD spectra: spectra largely unchanged with incubation time
Protocol: The circular dichroism (CD) spectra were recorded at various time points as indicated. […] The CD spectra of both peptides remained largely unchanged with the incubation time.
(§1) The 1.4 mM stock solution of each peptide in 75% trifluoroethanol was diluted to a final concentration of 30 μM in 20 mM sodium phosphate buffer with 150 mM KCl (PBS, pH 7). Each was incubated at 25°C for designated time points and placed in a 1‐mm cell to record the CD spectra between 200 and 250 nm on a J‐715 CD spectrometer (JASCO, Japan). The band width was set to 2 nm, and the step resolution was 0.05 nm. Each sample was scanned twice and the average of these two measurements was smoothed by the Savitzky–Golay method to get the final CD spectrum.
(§2) The samples were deposited on carbon‐coated 300‐mesh copper grids, incubated for 3 min for absorption, and then washed by water. Negative staining was carried out by staining with 2% uranyl acetate for 1.5 min. After air drying, the samples were viewed using a Hitachi H‐7000 electron microscope (Hitachi, Japan).
DR8-Aβ (25-35). The peptides were dissolved in 20 mM sodium phosphate b u ff e r with 150 mM KCl and incubated at 25 °C. Pept ide concentration is 30 µ M. (A-C) The CD spectra were recorded at the indicated incubation time shown in (A).(D -F) […]
formed nucleus ver y fast and β -sheet signal (negative ellipticity at 218 nm) can be seen in the beginning of i ncubation. The CD spectra were not smoothed.
(§3) (1 picture or pasted object on this page, not shown here)

Aβ40 = biological target: T1, Aβ40 (Homo sapiens, UniProt P05067); assay: Inhibition of Aβ40 fibrillization (CD spectra, TEM); type: biochemical; conditions: for Aβ40 fibril formation in the presence of peptide at 1:1 ratio (kinetics of CD spectra): authors' reply in review file
T1 construct: made in house; host or cells: chemical solid-phase peptide synthesis (Fmoc-polyamide), no expression host
Protocol: as §1, §2
Appendix Figure S2. Effect of the designed bipartite peptides on inhibition of A β 40 fibrillization. The peptides were dissolved in 20 mM sodium phosphate buffer with 150 mM KCl and incubated at 25 °C. Peptide concentration is 30 µM for each peptide. The CD spect ra of A β 40 (A), the Aβ 40/R 8-Aβ (25-35) mixture (1:1) (B), and the Aβ 40/DR8-Aβ (25-35) mixture (1:1) (C) were recorded at the indicated incubation times shown in (A). The spectrum change is pointed out by an arrow in (A), indicating the formation of cross-β structure in the am yloid fibrils. (D) The time course of am yloido gen es is of Aβ 40 with and without the designed peptide inhibitors .
The CD spectra were not smoothed. (A) is the same as Fi g. S1A.
as §3

Neuro2a cells = assay: Cell viability by MTT assay, peptide alone; type: cell-based, mouse; conditions: 30 μM peptide, MTT 48 h later, N = 6
Protocol: (§4) Data information: Peptide concentration is 30 μM for each peptide. Standard deviations of the mean are shown as bars for each sample (N = 6 for pure peptide and N = 12 for mixture). The statistics were done by Student's t‐test. Mouse N2a neuroblastoma cells (ATCC) were cultured in Dulbecco's modified Eagle's medium (DMEM) (HyClone, USA) supplemented with 10% fetal bovine serum (HyClone, USA). Cells were harvested with DMEM and suspended at a density of 3.5 × 10^5 cells/ml. 100 μl from each sample was plated in one well of a 96‐well CellBIND microplate (Corning, USA) and then incubated at 37°C under 5% CO2 for 24 h. Five microliters from each stock peptide (6 mM) in DMSO was diluted with 95 μl of PBS (pH 7.0) and then 900 μl of DMEM to a final concentration of 30 μM.

[2] = test system: Aβ40 toxicity to Neuro2a cells; assay: Attenuation of Aβ40 cytotoxicity, MTT assay; type: cell-based, mouse; conditions: Aβ40 30 μM premixed with 30 μM peptide for 24 h at room temperature; Aβ40 alone 30%; MTT 48 h later, N = 12
Protocol: as §4

T1 sequence (P05067 672-711): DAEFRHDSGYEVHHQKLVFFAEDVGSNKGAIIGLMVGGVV

| Compound | amyloid fibril formation (TEM) [1] | conformation by CD spectra [1] | Aβ40 fibril formation in the presence of peptide at 1:1 ratio (kinetics of CD spectra) (Aβ40) | inhibition effect on Aβ40 fibrillization at the lowest ratio (Aβ40; Aβ40 30 μM : peptide 1:0.1) | effect on formation of Aβ40 amyloid fibrils (CD 218 nm, TEM) (Aβ40; Aβ40 30 μM mixed with peptide at 1:0.1, 1:0.2 or 1:1 molar ratio, pH 7, 25°C) | toxicity to the N2a cells (Neuro2a cells) | cell viability with Aβ40 plus equal molar peptide [2] | inhibition effect on Aβ40 fibrillization, 1:1 mixture (Aβ40; Aβ40 30 μM and peptide 30 μM (1:1), pH 7, 25°C, CD) |
| --- | --- | --- | --- | --- | --- | --- | --- | --- |
| Ac-RRRRRRRRGSNKGAIIGLM-NH2 [R8‐Aβ(25–35)] | did not form amyloid fibrils at all | random coil structure | failed to formed fibrils | observed even when its concentration was ten times lower than Aβ40 | significantly delayed or decreased the formation of Aβ40 amyloid fibrils | no detectable toxicity | 70–75% | – |
| CC[C@H](C)[C@H](NC(=O)[C@H](C)NC(=O)CNC(=O)[C@H](CCCCN)NC(=O)[C@H](CC(N)=O)NC(=O)[C@H](CO)NC(=O)CNC(=O)[C@@H](CCCNC(=N)N)NC(=O)[C@@H](CCCNC(=N)N)NC(=O)[C@@H](CCCNC(=N)N)NC(=O)[C@@H](CCCNC(=N)N)NC(=O)[C@@H](CCCNC(=N)N)NC(=O)[C@@H](CCCNC(=N)N)NC(=O)[C@@H](CCCNC(=N)N)NC(=O)[C@@H](CCCNC(=N)N)NC(C)=O)C(=O)N[C@H](C(=O)NCC(=O)N[C@@H](CC(C)C)C(=O)N[C@@H](CCSC)C(N)=O)[C@@H](C)CC [^DR8‐Aβ(25–35)] (Ac-[dR][dR][dR][dR][dR][dR][dR][dR]GSNKGAIIGLM-NH2) | did not form amyloid fibrils at all | random coil structure | failed to formed fibrils | – | – | no detectable toxicity | 70–75% | inhibition effect was also observed |
